Earlier results as cited in patent US6669955B2, “Combination dosage form containing individual dosage units of a cholesterol-lowering agent, an inhibitor of the renin-angiotensin system, and aspirin” (Longwood Pharmaceutical Research, Inc., priority 2001, dated 2003).

Experiments:
[1] = tested on: patients at risk for cardiovascular events; details: daily administration of low doses (approximately 80 mg); cited from earlier work
[2] = tested on: blood pressure; details: relative to angiotensin II; cited from earlier work

## CC(=O)Oc1ccccc1C(=O)O [aspirin, acetylsalicylic acid]
[1]
  reduction of second heart attacks, strokes, and cardiovascular deaths: at least 25%

## angiotensin I (DRVYIHPFHL; Angiotensin-1; UniProt P01019 25-34, looked up) [decapeptide formed by renin acting on angiotensinogen]
[2]
  hypertensive activity, as share of that of angiotensin II: about 1%
